Here are results for three molecules from ChEMBL document CHEMBL5653631, “A Potent and Selective ULK1 Inhibitor Suppresses Autophagy and Sensitizes Cancer Cells to Nutrient Stress” (iScience, 2018).

Usually inhibition stands for the share of the control response that was lost under treatment.

Assay [1] addresses Fibroblast growth factor receptor 4 (Homo sapiens) (UniProt P22455). Briefly: Inhibition of human recombinant FGFR4 at 40 nM in presence of ATP by radiometric assay relative to control.
For assay [2], the target named is T1, Serine/threonine-protein kinase ULK3 (Homo sapiens) (UniProt Q6PHR2).
T1 sequence (whole entry): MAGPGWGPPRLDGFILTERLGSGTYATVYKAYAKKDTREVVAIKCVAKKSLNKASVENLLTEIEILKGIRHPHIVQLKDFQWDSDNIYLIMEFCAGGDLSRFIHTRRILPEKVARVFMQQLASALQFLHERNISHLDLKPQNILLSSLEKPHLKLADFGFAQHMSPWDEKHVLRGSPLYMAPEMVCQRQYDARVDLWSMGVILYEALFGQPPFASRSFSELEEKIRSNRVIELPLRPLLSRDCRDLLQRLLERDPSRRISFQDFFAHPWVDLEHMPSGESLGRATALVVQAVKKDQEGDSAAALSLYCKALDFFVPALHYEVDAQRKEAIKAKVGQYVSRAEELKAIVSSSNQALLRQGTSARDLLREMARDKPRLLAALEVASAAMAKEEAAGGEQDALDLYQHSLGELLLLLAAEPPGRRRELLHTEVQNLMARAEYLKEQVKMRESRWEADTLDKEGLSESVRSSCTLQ
Briefly: Inhibition of human recombinant ULK3 at 500 nM in presence of ATP by radiometric assay relative to control.

For assay [3], the target named is Insulin-like growth factor 1 receptor (Homo sapiens) (UniProt P08069). Kind of assay: Inhibition of human recombinant IGF1R at 500 nM related to control ULK1.
Insulin-like growth factor 1 receptor (Homo sapiens), sequence (P08069 31-736 limits assumed): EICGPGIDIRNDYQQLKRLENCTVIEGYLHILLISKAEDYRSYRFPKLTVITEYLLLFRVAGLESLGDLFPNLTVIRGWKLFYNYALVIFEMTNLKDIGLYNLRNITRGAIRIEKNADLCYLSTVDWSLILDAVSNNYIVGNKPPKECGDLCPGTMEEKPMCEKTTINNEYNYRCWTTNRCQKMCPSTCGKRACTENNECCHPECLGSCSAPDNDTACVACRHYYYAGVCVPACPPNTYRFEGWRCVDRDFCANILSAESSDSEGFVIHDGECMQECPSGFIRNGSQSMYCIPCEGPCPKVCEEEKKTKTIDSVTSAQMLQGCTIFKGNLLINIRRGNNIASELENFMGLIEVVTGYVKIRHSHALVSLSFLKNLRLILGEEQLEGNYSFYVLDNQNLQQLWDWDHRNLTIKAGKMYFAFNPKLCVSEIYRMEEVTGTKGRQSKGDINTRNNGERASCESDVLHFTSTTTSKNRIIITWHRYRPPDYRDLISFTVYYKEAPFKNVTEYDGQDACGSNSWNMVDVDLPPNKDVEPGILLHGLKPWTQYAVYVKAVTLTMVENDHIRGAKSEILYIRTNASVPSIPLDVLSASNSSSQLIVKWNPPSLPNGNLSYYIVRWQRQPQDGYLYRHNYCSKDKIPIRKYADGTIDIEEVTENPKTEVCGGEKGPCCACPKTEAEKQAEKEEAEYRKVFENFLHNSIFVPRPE
Insulin-like growth factor 1 receptor (Homo sapiens), sequence (P08069 741-1367 limits assumed): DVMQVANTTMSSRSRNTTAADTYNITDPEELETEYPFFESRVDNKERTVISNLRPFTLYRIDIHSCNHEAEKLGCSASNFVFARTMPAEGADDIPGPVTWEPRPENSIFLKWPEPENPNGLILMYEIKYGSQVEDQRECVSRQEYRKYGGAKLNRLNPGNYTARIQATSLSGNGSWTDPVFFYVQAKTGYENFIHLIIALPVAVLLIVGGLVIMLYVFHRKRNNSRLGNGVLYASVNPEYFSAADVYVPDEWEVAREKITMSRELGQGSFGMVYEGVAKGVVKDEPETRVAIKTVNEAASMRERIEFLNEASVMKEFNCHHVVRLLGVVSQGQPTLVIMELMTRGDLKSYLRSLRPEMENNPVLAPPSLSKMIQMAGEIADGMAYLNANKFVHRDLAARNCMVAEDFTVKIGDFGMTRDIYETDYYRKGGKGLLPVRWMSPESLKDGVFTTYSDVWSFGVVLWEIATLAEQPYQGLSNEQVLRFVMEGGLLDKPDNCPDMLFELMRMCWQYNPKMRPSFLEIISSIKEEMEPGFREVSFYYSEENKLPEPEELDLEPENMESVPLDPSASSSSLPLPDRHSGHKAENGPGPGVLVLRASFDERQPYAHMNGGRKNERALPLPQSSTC
Assay [4] addresses T2, cAMP-dependent protein kinase catalytic subunit PRKX (Homo sapiens) (UniProt P51817).
T2 sequence (whole entry): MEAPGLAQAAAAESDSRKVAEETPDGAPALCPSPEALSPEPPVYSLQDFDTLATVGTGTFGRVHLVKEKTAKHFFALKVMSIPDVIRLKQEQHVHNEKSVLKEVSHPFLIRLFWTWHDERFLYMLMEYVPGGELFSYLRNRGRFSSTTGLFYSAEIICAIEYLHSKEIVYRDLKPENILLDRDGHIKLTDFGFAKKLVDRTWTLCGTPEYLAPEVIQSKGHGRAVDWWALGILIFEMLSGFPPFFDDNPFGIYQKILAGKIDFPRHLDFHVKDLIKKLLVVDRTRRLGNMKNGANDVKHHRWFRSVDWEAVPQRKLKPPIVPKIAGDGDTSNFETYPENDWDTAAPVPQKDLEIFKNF
Kind of assay: Inhibition of human recombinant PRKX at 15 nM in presence of ATP by radiometric assay relative to control.

In assay [5] the target is T3, Tyrosine-protein kinase Mer (Homo sapiens) (UniProt Q12866).
T3 sequence (whole entry): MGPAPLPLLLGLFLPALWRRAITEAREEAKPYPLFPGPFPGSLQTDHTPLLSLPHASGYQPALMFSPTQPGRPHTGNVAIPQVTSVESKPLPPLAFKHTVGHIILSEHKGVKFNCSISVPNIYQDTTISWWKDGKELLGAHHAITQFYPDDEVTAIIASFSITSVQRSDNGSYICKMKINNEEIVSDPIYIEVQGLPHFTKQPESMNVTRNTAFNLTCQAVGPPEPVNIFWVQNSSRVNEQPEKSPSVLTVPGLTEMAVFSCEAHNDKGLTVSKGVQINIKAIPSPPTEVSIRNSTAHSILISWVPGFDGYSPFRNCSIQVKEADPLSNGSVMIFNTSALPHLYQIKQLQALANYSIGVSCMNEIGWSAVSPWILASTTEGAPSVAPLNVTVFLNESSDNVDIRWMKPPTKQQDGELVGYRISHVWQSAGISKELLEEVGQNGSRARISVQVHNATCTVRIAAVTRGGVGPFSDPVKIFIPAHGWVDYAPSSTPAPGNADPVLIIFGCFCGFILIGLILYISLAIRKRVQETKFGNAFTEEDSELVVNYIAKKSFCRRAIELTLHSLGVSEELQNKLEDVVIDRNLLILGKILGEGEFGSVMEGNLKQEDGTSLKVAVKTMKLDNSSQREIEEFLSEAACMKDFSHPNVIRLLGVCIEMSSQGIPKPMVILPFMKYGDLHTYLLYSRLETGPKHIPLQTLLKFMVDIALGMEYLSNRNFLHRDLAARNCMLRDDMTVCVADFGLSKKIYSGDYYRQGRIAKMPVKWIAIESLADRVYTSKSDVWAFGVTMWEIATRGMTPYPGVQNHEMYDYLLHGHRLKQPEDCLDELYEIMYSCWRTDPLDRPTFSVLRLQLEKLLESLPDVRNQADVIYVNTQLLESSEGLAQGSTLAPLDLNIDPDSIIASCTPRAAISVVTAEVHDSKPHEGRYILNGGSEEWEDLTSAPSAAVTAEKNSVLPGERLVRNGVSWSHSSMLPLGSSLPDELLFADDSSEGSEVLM
Briefly: Inhibition of human recombinant MER at 15 nM in presence of ATP by radiometric assay relative to control.

In assay [6] the target is T4, Phosphorylase b kinase gamma catalytic chain, liver/testis isoform (Homo sapiens) (UniProt P15735).
T4 sequence (whole entry): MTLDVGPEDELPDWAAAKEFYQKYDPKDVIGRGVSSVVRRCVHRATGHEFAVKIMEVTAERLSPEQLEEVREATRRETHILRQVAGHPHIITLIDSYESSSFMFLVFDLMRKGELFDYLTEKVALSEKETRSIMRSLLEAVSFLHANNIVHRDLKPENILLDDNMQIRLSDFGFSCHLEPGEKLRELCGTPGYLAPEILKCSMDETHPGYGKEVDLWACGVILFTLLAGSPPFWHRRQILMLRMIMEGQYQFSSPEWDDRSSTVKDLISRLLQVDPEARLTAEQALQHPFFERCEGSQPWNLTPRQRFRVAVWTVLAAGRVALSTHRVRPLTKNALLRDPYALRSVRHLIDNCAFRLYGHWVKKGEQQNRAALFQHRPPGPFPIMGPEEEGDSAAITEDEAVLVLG
Kind of assay: Inhibition of human recombinant PHKg2 at 15 nM in presence of ATP by radiometric assay relative to control.

The target of assay [7] is Maternal embryonic leucine zipper kinase (Homo sapiens) (UniProt Q14680). Kind of assay: Inhibition of human recombinant MELK at 15 nM related to control ULK1.
Maternal embryonic leucine zipper kinase (Homo sapiens), sequence (Q14680 whole entry, looked up): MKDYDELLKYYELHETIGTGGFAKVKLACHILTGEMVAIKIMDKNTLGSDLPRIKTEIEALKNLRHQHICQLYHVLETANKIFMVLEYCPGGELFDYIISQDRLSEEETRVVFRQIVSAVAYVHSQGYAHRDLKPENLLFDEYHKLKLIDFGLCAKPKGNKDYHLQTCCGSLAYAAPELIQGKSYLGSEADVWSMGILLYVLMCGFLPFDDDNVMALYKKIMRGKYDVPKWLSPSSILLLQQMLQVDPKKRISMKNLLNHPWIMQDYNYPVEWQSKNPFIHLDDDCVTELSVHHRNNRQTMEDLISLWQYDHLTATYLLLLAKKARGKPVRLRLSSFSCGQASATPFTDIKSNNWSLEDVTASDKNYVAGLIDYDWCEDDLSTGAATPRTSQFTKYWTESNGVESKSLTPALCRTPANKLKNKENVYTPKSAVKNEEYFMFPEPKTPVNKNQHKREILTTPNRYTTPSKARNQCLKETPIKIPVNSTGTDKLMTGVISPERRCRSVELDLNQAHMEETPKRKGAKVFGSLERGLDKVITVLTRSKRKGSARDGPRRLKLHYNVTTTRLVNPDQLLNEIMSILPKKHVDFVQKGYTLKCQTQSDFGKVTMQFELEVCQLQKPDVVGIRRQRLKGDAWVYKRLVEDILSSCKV

Fibroblast growth factor receptor 4 (Homo sapiens), sequence (P22455 22-802 limits assumed): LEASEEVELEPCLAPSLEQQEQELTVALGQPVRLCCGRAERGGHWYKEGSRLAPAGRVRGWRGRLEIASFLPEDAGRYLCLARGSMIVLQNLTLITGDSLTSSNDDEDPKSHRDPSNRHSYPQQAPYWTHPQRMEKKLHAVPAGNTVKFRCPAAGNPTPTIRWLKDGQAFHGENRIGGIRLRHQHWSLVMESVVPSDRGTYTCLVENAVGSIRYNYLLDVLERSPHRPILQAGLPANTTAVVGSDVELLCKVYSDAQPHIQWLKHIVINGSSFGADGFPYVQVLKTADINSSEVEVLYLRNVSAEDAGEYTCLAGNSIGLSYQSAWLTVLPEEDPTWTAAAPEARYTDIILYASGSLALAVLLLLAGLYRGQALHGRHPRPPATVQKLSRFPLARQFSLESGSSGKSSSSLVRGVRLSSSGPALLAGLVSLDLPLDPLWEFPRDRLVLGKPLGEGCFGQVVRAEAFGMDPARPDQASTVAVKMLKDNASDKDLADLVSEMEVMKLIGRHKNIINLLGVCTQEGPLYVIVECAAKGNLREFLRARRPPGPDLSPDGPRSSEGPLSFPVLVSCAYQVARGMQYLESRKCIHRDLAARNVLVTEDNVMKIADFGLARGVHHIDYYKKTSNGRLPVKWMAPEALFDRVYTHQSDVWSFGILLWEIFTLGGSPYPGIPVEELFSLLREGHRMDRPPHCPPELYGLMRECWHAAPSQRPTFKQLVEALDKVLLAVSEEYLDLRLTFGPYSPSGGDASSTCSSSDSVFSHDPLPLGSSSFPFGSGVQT

With `O=C(N[C@@H](C1CC1)C(F)(F)F)c1cc(-c2cnn3cc(-c4ccc(F)cc4)cnc23)cs1`, the inhibition in assay [1] amounted to 0%.
For `CNC(=O)c1ccccc1Oc1nc(Nc2cc(OC)c(OC)c(OC)c2)ncc1Br`, the inhibition in assay [2] amounted to 84%. The fold change (FC) in assay [3] amounted to 0.04.
Regarding `CC(C)[C@H](NC(=O)c1cc(-c2cnn3cc(-c4ccc(OCCN5CCCCC5)cc4)cnc23)cs1)C(F)(F)F`, the results for the inhibition in assay [4], in assay [5] and in assay [6] were 16%, 34% and 9%, respectively. Besides, the fold change (FC) in assay [7] amounted to 0.76.
